Reference: patent publication US9969677B2, “Histone acetyltransferase modulators and uses thereof” (THE TRUSTEES OF COLUMBIA UNIVERSITY IN THE CITY OF NEW YORK, priority 2010, dated 2018)

Assays:
p300 = target: T1, p300 (Homo sapiens, UniProt Q09472); assay: acetyltransferase activity assay (Enzo Life Sciences), P300; type: biochemical; conditions: for EC50: Table 1, activation of P300 according to b440
T1 construct: the catalytic domain of human CBP, PCAF, p300 and GCN5 (Enzo Life Sci., USA) can be used; purchased Enzo Life Sciences
T1 sequence (Q09472 1287-1663 limits assumed): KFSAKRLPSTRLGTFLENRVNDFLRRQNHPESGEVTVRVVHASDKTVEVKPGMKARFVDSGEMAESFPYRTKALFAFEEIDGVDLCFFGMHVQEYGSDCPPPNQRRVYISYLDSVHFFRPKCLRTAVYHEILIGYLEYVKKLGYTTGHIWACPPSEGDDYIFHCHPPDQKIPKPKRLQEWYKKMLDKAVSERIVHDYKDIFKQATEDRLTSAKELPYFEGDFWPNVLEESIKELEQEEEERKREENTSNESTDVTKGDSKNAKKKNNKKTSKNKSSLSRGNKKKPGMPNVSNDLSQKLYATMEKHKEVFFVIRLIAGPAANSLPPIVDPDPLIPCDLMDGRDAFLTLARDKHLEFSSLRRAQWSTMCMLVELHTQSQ
Experimental: (§1) Commercial human HATs (CBP, p300, GCN5, PCAF (Enzo Life Sciences), and Tip60 (SignalChem)) were assayed in an acetyltransferase activity assay (Enzo Life Sciences, Cat. No. ADI-907-026). Each well contained, in addition to a HAT, histone 3 as the acetyl acceptor, acetyl-CoA as the acetyl donor in the reaction mixture and compounds (1% DMSO) at the appropriate concentrations. The reaction was carried out at room temperature. Enzyme activity was measured by monitoring the breakage of the substrate acetyl-CoA by HAT using a proprietary detection mixture. The fluorescent signal was measured using a Tecan microplate reader (excitation: 380 nm, emission: 520 nm). The assay methodology was adopted as it provided a 10-fold higher signal/background ratio and was more sensitive than other assays. […] Compound 10 had no effect with either P300 or CBP (FIG. 13).

CBP = target: T2, CBP (Homo sapiens, UniProt Q92793); assay: acetyltransferase activity assay (Enzo Life Sciences), CBP; type: biochemical
T2 construct: the catalytic domain of human CBP, PCAF, p300 and GCN5 (Enzo Life Sci., USA) can be used; purchased Enzo Life Sciences
Experimental: as §1

[1] = in vivo; cited from earlier work
[2] = tested on: Aβ-induced reduction of LTP; assay: rescue of Aβ-induced reduction of LTP
From the text: Synaptic dysfunction is a major hallmark of AD (Histol Histopathol, 1995. 10(2): p. 509-19; herein incorporated by reference in its entirety). An aspect of the drug screening protocol can include a measurement of the effect of compounds onto synaptic function. The APP/PS1 mouse presents an impairment of LTP by the age of 3 months (Ann Neurol, 2004. 55(6): p. 801-14; herein incorporated by reference in its entirety), and therefore permits a relatively fast assessment of synaptic function without waiting a long time for mice aging. LTP can be examined because it is a type of synaptic plasticity thought to underlie learning and memory. D rescues the Aβ-induced reduction of LTP, and other compounds can also be screened to identify those that can re-establish normal LTP. The compounds can be applied for 30 min. Controls can be performed on slices from APP/PS1 mice treated with vehicle, and WT mice treated with compound or vehicle. If the compounds re-establish normal LTP in APP/PS1 slices, one can conclude that the compounds rescue impairment of synaptic plasticity in APP/PS1 mice. Cognitive impairment can also be investigated (see Example 5).

histone acetylation = conditions: cited from earlier work
Tip60 = target: T3, Tip60 (Homo sapiens, UniProt Q92993); assay: acetyltransferase activity assay (Enzo Life Sciences), Tip60; type: biochemical; conditions: histone 3 acetyl acceptor, acetyl-CoA, room temperature
T3 construct: purchased SignalChem
Experimental: as §1

[3] = cited from earlier work
[4] = cited from earlier work; remark: listed apart in the source
[5] = cited from earlier work; remark: listed apart in the source
APP/PS1 mouse [6] = conditions: APP/PS1 double transgenic mouse; cited from earlier work
APP/PS1 mouse [7] = conditions: APP/PS1 double transgenic mouse; cited from earlier work; remark: listed apart in the source
[8] = in vivo; cited from earlier work; remark: listed apart in the source
[9] = tested on: PC12 cells, sympathetic neurons and hippocampal neurons; conditions: cited from earlier work

T2 sequence (Q92793 1323-1700 limits assumed): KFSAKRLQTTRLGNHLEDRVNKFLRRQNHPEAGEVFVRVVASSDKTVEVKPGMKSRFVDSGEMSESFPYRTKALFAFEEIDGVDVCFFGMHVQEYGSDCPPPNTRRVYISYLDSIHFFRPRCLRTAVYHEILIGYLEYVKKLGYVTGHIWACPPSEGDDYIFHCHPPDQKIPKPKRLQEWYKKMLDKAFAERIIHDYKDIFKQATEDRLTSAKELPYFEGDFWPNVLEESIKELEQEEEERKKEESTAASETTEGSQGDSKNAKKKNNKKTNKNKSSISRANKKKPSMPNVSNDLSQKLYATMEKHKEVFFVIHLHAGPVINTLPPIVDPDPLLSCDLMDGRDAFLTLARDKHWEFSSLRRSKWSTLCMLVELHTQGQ
T3 sequence (Q92993 whole entry): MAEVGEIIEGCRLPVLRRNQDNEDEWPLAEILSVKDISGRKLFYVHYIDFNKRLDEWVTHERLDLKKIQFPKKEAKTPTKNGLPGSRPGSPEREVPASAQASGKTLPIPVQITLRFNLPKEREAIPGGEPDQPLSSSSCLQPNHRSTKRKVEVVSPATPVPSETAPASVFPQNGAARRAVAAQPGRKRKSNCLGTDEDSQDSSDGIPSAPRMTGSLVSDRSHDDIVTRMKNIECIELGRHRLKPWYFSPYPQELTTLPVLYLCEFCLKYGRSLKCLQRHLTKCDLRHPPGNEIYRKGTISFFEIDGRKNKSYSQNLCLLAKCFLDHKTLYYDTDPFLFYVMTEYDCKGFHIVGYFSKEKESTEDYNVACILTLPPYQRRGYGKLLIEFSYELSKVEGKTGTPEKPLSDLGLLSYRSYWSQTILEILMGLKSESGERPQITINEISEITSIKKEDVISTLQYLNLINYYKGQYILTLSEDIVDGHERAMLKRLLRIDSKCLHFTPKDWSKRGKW

CCOc1cccc(OCCCN(C)C)c1C(=O)Nc1ccc(Cl)c(C(F)(F)F)c1 [Compound 13, N-[4-chloro-3-(trifluoromethyl)phenyl]-2-[3-(dimethylamino)propoxy]-6-ethoxybenzamide]
EC50 (p300): 1.32 nM

CCOc1cccc(OCCN(C)C)c1/C=N/c1ccc(Cl)c(C(F)(F)F)c1 [Compound 17, 4-chloro-N-[2-(2-(dimethylamino)ethoxy)-6-ethoxybenzylidene]-3-(trifluoromethyl)aniline]
effect on CBP, initial screening (FIG. 13) (CBP): activated only CBP

CCOc1ccc(OCCN(C)C)c(C(=O)Nc2ccc(Cl)c(C(F)(F)F)c2)c1 [Compound 18, N-(4-chloro-3-(trifluoromethyl)phenyl)-2-(2-(dimethylamino)ethoxy)-5-ethoxybenzamide]
EC50 (p300): 2.3 nM | effect on CBP, initial screening (FIG. 13) (CBP): activated only CBP

CCOc1ccc(C(=O)Nc2ccc(Cl)c(C(F)(F)F)c2)c(OCCN(C)C)c1 [Compound 19, N-(4-chloro-3-(trifluoromethyl)phenyl)-2-(2-(dimethylamino)ethoxy)-4-ethoxybenzamide]
EC50 (p300): 1.85 nM

CCOc1cccc(OCCN2CCCCC2)c1C(=O)Nc1ccc(Cl)c(C(F)(F)F)c1 [Compound 8, N-[4-chloro-3-(trifluoromethyl)phenyl]-2-ethoxy-6-[2-(piperidin-1-yl)ethoxy] benzamide]
EC50 (p300): 2.75 nM

CCOc1cccc(OCCN(C)C)c1C(=O)Nc1ccc(Cl)c(C(F)(F)F)c1 [Compound D, N-[4-chloro-3-(trifluoromethyl)phenyl]-2-[2-(dimethyl-amino)ethoxy]-6-ethoxybenzamide]
safety in acute toxicity tests [1]: safe | Aβ-induced reduction of LTP [2]: rescues | histone acetylation (histone acetylation): increases histone acetylation | EC50 (Tip60): > 200000 nM | BBB permeability [3]: BBB permeant | membrane permeability [4]: membrane permeable | EC50 (p300): 3.81 nM | solubility [5]: soluble | EC50 (CBP; histone 3 acetyl acceptor, acetyl-CoA, room temperature): 4.5 nM

CCOc1cccc(OCCN2CCNCC2)c1C(=O)Nc1ccc(Cl)c(C(F)(F)F)c1 [Compound 10, N-[4-chloro-3-(trifluoromethyl)phenyl]-2-ethoxy-6-[2-(piperazin-1-yl)ethoxy]benzamide]
EC50 (p300): 2.1 nM | effect on P300, initial screening (FIG. 13) (p300): no effect | effect on CBP, initial screening (FIG. 13) (CBP): no effect

CC(/C=C/C(=O)NO)=C\[C@@H](C)C(=O)c1ccc(N(C)C)cc1 [TSA]
LTP (APP/PS1 mouse [6]): ameliorates | contextual fear conditioning (FC) / contextual learning (APP/PS1 mouse [7]): ameliorates

Cc1cc(-c2ccccc2)nnc1NCCN1CCOCC1 [minaprine]
brain/blood ratio [8]: > 2

CCOc1cccc(O)c1C(=O)Nc1ccc(Cl)c(C(F)(F)F)c1 [Compound 25, N-[4-chloro-3-(trifluoromethyl)phenyl]-2-ethoxy-6-hydroxybenzamide]
effect on CBP, initial screening (FIG. 13) (CBP): activated only CBP

CCOc1cccc(OCCN(CC)CC)c1C(=O)Nc1ccc(Cl)c(C(F)(F)F)c1 [Compound 12, N-(4-chloro-3-(trifluoromethyl)phenyl)-2-(2-(diethylamino)ethoxy)-6-ethoxybenzamide]
EC50 (p300): 1.47 nM

CCOc1cccc(OCCN2CCN(C)CC2)c1C(=O)Nc1ccc(Cl)c(C(F)(F)F)c1 [Compound 11, N-[4-chloro-3-(trifluoromethyl)phenyl]-2-ethoxy-6-[2-(4-methylpiperazin-1-yl)ethoxy]benzamide]
EC50 (p300): 2.28 nM | effect on P300, initial screening (FIG. 13) (p300): inhibited | effect on CBP, initial screening (FIG. 13) (CBP): no effect

CCOc1cccc(O)c1CNc1ccc(Cl)c(C(F)(F)F)c1 [Compound 26, 2-[((4-chloro-3-(trifluoromethyl)phenyl)amino)methyl]-3-ethoxyphenol]
effect on CBP, initial screening (FIG. 13) (CBP): activated only CBP

COc1ccc(C2CNC(=O)C2)cc1OC1CCCC1 (stereo not shown) [rolipram]
LTP (APP/PS1 mouse [6]): ameliorates deficits | contextual fear conditioning (FC) / contextual learning (APP/PS1 mouse [7]): ameliorates deficits

CC(C)(SN=O)[C@H](N)C(=O)O [S-nitroso penicillamine]
protection against Aβ-induced neurotoxicity [9]: exerts a neuroprotective effect

CCOc1cccc(OCCN2CCOCC2)c1C(=O)Nc1ccc(Cl)c(C(F)(F)F)c1 [Compound 9, N-[4-chloro-3-(trifluoromethyl)phenyl]-2-ethoxy-6-(2-morpholinoethoxy) benzamide]
EC50 (p300): 2.07 nM

CCCCCCCCCCCCCCCc1cccc(OCC)c1C(=O)Nc1ccc(Cl)c(C(F)(F)F)c1 [CTPB]
membrane permeability [4]: membrane-impermeable | solubility [5]: insoluble

CCOc1cccc(OCCN(C)C)c1C(=O)NCc1ccc(Cl)c(C(F)(F)F)c1 [Compound 16, N-[4-chloro-3-(trifluoromethyl)benzyl]-2-(2-(dimethylamino)ethoxy)-6-ethoxybenzamide]
EC50 (p300): 1.84 nM | effect on CBP, initial screening (FIG. 13) (CBP): activated only CBP

CCOc1ccccc1C(=O)Nc1ccc(Cl)c(C(F)(F)F)c1 [CTB]
membrane permeability [4]: membrane-impermeable | solubility [5]: insoluble
